Paper PMC6235670, “An mTOR Signaling Modulator Suppressed Heterotopic Ossification of Fibrodysplasia Ossificans Progressiva” (Stem Cell Reports, 2018)
Like-named read-outs stand apart in the source and are kept apart here.

Columns and labels:
[1] = system: ATDC5/FOP-ACVR1 cells; assay: ALP assay (HTS and dose-response) in ATDC5/FOP-ACVR1; type: cell-based, mouse
Method: ATDC5/FOP-ACVR1 cells were plated in 96-well white plates (2,000 cells/well/40 μL, Corning) in DMEM/F-12 supplemented with 5% (v/v) FBS. Two hours after incubation at 37°C under 5% CO2, 10 μL of test compounds (final 1 μM) was added, and the assay plates were incubated at 37°C under 5% CO2. After 3 days of incubation, ALP activity was measured using an Amplite Colorimetric Alkaline Phosphatase Assay Kit (AAT Bioquest) according to the manufacturer's protocol.
(§1) Generation of ATDC5 stably expressing ACVR1. WT - or FOP-ACVR1 was inserted into doxycycline (Dox)- […]
(§2) (KW111/WT-ACVR1 or KW111/FOP-ACVR1). KW111/WT-ACVR1 or KW111/FOP-ACVR1 and PBaseII […]
FuGeneHD® (Promega) according to the manufacturer’s protocol, and the neomycin- resistant population (500 µg/mL) was selected. […]
HTS campaign and follow-up screens. […] After 3 days incubation, Alkaline Phosphatase activity (ALP) or AlamarBlue activity was measured using Amplite™ Colorimetric Alkaline Phosphatase Assay Kit (AAT Bioquest) or alamarBlue® Cell Viability Reagent (Thermo Fisher Scientific) according to the manufacturer’s protocol, respectively. […]
(§3) was measured on POWERSCAN4 (DS Pharma Biomedical) or EnVision® Multilabel Reader (PerkinElmer).
(§4) Inhibitory effects of the screened compounds are given as percent inhibition, which was calculated using the following equation: (1-([Abs of compound] - [Abs of Min])/([Abs of Max] - [Abs of Min]))× 100, where [Abs of Max] and [Abs of Min] are the mean Abs of DMSO control and 1 µM DMH-1, respectively. The Z’ factor, which is widely used as a measure of the assay quality of each plate, was calculated using the following equation: Z’ factor = 1 - 3 × ([SD of Max] + [SD of Min])/([Abs of Max] - [Abs of Min]) (SI Appendix, Fig.
The S/B (signal-to-background) ratio was calculated using the following equation: ([Abs of Max]/[Abs of Min]) (SI Appendix, Fig. S3B). […]

[2] = AlamarBlue viability assay in ATDC5/FOP-ACVR1; conditions: mouse, ATDC5 cells stably expressing FOP-ACVR1 (ATDC5/FOP-ACVR1)
Method: as §1, §2
(§5) FuGeneHD® (Promega) according to the manufacturer’s protocol, and the neomycin- resistant population (500 µg/mL) was selected. Further selection was performed by selecting a mCherry high positive population (< 5%) after six hours of Dox treatment, sorting it with fluorescent-activated cell sorting (FACS) using AriaII (BD) according to the manufacturer’s protocol, and designating it as ATDC5/WT-ACVR1 or ATDC5/FOP-ACVR1.
(§6) KW111 included PB, active transposable PB elements; TRE-mCMVP, Tetracycline Response Element and a minimal CMV promoter; rtTA, reverse tetracycline-controlled transactivator. PBaseII was an expression plasmid vector containing the PB transposase cDNA with optimized codon usage to human under the control […]
(§7) HTS campaign and follow-up screens. ATDC5/FOP-ACVR1 cells were plated in 96-well white plates (2,000 cells/well/40 µ L, Corning) in DMEM/F-12 supplemented with 5% (v/v) FBS. […]
(§8) 37 °C under 5% CO2. After 3 days incubation, Alkaline Phosphatase activity (ALP) or AlamarBlue activity was measured using Amplite™ Colorimetric Alkaline Phosphatase Assay Kit (AAT Bioquest) or alamarBlue® Cell Viability Reagent (Thermo Fisher Scientific) according to the manufacturer’s protocol, respectively. T h e […]
as §3, §4
(§9) The S/B (signal-to-background) ratio was calculated using the following equation: ([Abs of Max]/[Abs of Min]) (SI Appendix, Fig. S3B).
(§10) Using ATDC5/FOP-ACVR1 cells, we performed a first screening (n=2; test compounds = 1 µM, Fig. […]

[3] = system: ATDC5/FOP-ACVR1 cells; assay: AlamarBlue viability assay in ATDC5/FOP-ACVR1; conditions: for Viability (%) @10 μM: AlamarBlue, ATDC5/FOP-ACVR1, 10 μM
Method: as §1, §2, §5, §6, §7, §8, §3, §4, §9, §10

[4] = system: ATDC5/FOP-ACVR1 cells; assay: ALP assay (HTS and dose-response) in ATDC5/FOP-ACVR1; type: cell-based, mouse; conditions: same protocol as HTS (72 h)
[5] = system: FOP-iMSCs; assay: 2D chondrogenic induction of FOP-iMSCs with activin A (GAG, Alcian blue); type: cell-based, human; conditions: activin A, 7 days
[6] = system: BMP signaling (BRE-Luc); assay: BRE-Luc reporter assay in FOP-iMSCs; type: cell-based, human; conditions: activin A and compounds for 16 hr
Method: (§11) FOP-iMSCs transiently transfected with BRE-Luc (A) or CAGA-Luc (B) with CMV-Renilla were stimulated with activin A and compounds for 16 hr (A) or 3 hr (B). […] One day after siRNA transfection, chondrogenic induction with activin A was initiated, and after 7 days the cells were harvested. […] FOP-iMSCs cultured with 10% FBS were treated with 100 nM rapamycin (Rapa) or TAK 165 (TAK) for 2 hr, and the cells were harvested. […] 1 μM TAK, 1 μM CP (CP-724714, another selective ERBB2 inhibitor), or 10 nM Rapa were applied in the experiments.

[7] = system: TGF-β signaling (CAGA-Luc); assay: CAGA-Luc reporter assay in FOP-iMSCs; type: cell-based, human; conditions: activin A and compounds for 3 hr
Method: as §11

[8] = system: mTOR signaling (p-S6); assay: p-S6 western blotting during chondrogenic induction of FOP-iMSCs with activin A; type: cell-based, human
Method: Western blotting. SDS- PAGE and blotting with whole-cell lysates were performed by standard procedures.
Protein bands were detected with ECL Prime Western Blotting Detection Reagent (GE Healthcare) and visualized using BIO-RAD Molecular Imager® Chemi-DocTM XRS+ with Image LabTM software (Bio-Rad).
All data (relative intensity) were corrected by β-actin.
Antibodies for western blotting and immunostaining.
N ame Company Cat. No Concentration
Human Activin RIA/ALK-2 Antibody R&D Systems) AF637 1:100
Anti-human Vimentin antibody Abcam ab16700 1:40
Collagen I Antibody Novus NB600- 1:100
Anti-rabbit IgG, HRP-linked Antibody Cell Signaling #7074 1:10000 […]
2nd Goat anti-Rabbit IgG (H+L) Secondary Antibody, Invitrogen A-11008 1:100 antibody Alexa Fluor® 488 conjugate
Goat anti-Rabbit IgG (H+L) Secondary Antibody, Invitrogen A-21428 1:500

[9] = system: FOP-iMSCs; assay: Microarray / pathway analysis of activin A-induced chondrogenesis of FOP-iMSCs; type: cell-based, human; conditions: 100 nM, 100 ng/mL Activin-A, 7 days, microarray, N = 1
Method: Microarray experiments. 2D chondrogenic induction was performed in FOP-iMSCs stimulated with or without 100 ng/mL Activin-A, TAK 165, CP-724714 and Lapatinib. Seven days after incubation, mRNA was extracted. RNA was reverse transcribed, biotin-labeled and hybridized to GeneChip Human Gene 1.0 ST Expression Array, which was subsequently washed and scanned according to the manufacturer’s instructions (Affymetrix). Raw CEL files were imported into GeneSpring GX 12.6.1 software (Agilent Technologies), and expression values were calculated with the RMA16 algorithm. Pathway analysis was performed by Ingenuity pathway analysis (Qiagen). […]

For C=C1/C(=C\C=C2/CCC[C@]3(C)[C@@H]([C@H](C)CCCC(C)(C)O)CC[C@@H]23)C[C@@H](O)C[C@@H]1O [Calcitriol], the IC50 ([1]; Mus musculus, 72 h, read-out: IC50 (ALP assay)) was 0.4 nM and the viability at 3 days, 10 µM [2] was 81%.

For Nc1ncnc2c1c(-c1cccc(OCc3ccccc3)c1)cn2C1CC(CN2CCCC2)C1 (stereo not shown) [NVP-ADW742], the “Viability (%) @10 μM” value [3] was -1% and the IC50 [4] was 6570 nM.

Cc1ccc(-n2nc(C(C)(C)C)cc2NC(=O)Nc2ccc(OCCN3CCOCC3)c3ccccc23)cc1 [BIRB 796] showed a viability at 3 days, 10 µM [2] of 99% and an IC50 ([4]; Mus musculus) of 9 nM.

C=C1/C(=C\C=C2/CCC[C@]3(C)[C@@H]([C@H](C)/C=C/[C@@H](O)C4CC4)CC[C@@H]23)C[C@@H](O)C[C@@H]1O [Calcipotriol] showed a viability at 3 days, 10 µM [2] of 80% and an IC50 ([4]; Mus musculus) of 0.3 nM.

For CC(C)Oc1ccc(-c2cnc3c(-c4ccnc5ccccc45)cnn3c2)cc1 [DMH-1], the “ALP activity of ATDC5/FOP-ACVR1” value ([1]; 72 hr after Dox and compound, without BMP stimulation) was “inhibited”, the “viability (AlamarBlue) of ATDC5/FOP-ACVR1” value ([3]; 72 hr after Dox and compound) was “not” and the “Viability (%) @10 μM” value [3] was 92%. It also gave an IC50 [4] of 21 nM.

In the case of CCN(CC)CCCCNc1ncc2cc(-c3c(Cl)cccc3Cl)c(NC(=O)NC(C)(C)C)nc2n1 [PD 161570], the “Viability (%) @10 μM” value [3] is reported as 63%, the “inhibition of glycosaminoglycan (GAG) production” value ([5]; 1 μM) is reported as “potent inhibition” and the “suppression of chondrogenic induction (GAG), dose dependence” value [5] is reported as “dose-dependent”. For the same compound, the “BRE-Luc (BMP-specific luciferase reporter)” value [6] was “inhibited”, the “CAGA-Luc (TGF-β-responsive luciferase reporter)” value [7] was “inhibited” and the “p-S6 levels from 2 hr after treatment” value ([8]; 1 µM) was “significantly inhibited”. The IC50 [4] was 317 nM.

With COCC(=O)NC/C=C/c1ccc2ncnc(Nc3ccc(Oc4ccc(C)nc4)c(C)c3)c2c1 [CP-724714] the “effect on GAG in the chondrogenesis of FOP-iMSCs (ERBB2 kinase inhibitors)” value ([5]; 100 nM and 1 µM) was “no effect”, the “p-S6 after 24-hr stimulation” value ([8]; 1 μM, 24 hr) was “no effects” and the “p-S6 after 7 days of stimulation” value ([8]; 1 μM, 7 days) was “not”. For the same compound, the “ADAMTS5 expression ratio to the TAK 165-treated group” value [9] was 3.1, the “BMP4 expression ratio to the TAK 165-treated group” value [9] was 5.2 and the “DKK1 expression ratio to the TAK 165-treated group” value [9] was 0.2. The “FOS expression ratio to the TAK 165-treated group” value [9] was 3.2, the “FRZB expression ratio to the TAK 165-treated group” value [9] was 3.6 and the “FZD3 expression ratio to the TAK 165-treated group” value [9] was 0.3. For the same compound, the “ITGA3 expression ratio to the TAK 165-treated group” value [9] was 3.9, the “ITGB3 expression ratio to the TAK 165-treated group” value [9] was 3.3 and the “MMP1 expression ratio to the TAK 165-treated group” value [9] was 11.5. For the same compound, the “MMP13 expression ratio to the TAK 165-treated group” value [9] was 5.4, the “PIK3R3 expression ratio to the TAK 165-treated group” value [9] was 0.4 and the “SPP1 expression ratio to the TAK 165-treated group” value [9] was 4.4. The “TNFRSF11B expression ratio to the TAK 165-treated group” value [9] was 3.4, the “WIF1 expression ratio to the TAK 165-treated group” value [9] was 0.1 and the “WNT16 expression ratio to the TAK 165-treated group” value [9] was 3.0.
